The source of these data is patent US20230293514A1, “INJECTABLE DEPOT FORMULATION COMPRISING CARIPRAZINE FREE BASE PARTICLES” (Anxo Pharmaceutical Co., Ltd., priority 2022, published 2023).

One data set is described as follows: physchem. Conditions: water, thermodynamic from solid.
For data set [1] the following is noted: plasma vs pH 7.6 buffer simulating muscular tissue; cited from earlier work.

Converted amounts (≈) assume the structure as drawn. Counter-ions that a name gives are not always drawn.

As a reminder, the solubility is how much of the substance goes into solution per volume. The molecule `CN(C)C(=O)NC1CCC(CCN2CCN(c3cccc(Cl)c3Cl)CC2)CC1` (stereo in doubt) [cariprazine hydrochloride salt, trans-N-{4-[2-[4-(2,3-dichlorophenyl)piperazine-1-yl]ethyl]cyclohexyl}-N′, N′-dimethylurea hydrochloride] registered a solubility in the data set “physchem” of over 5000 µg/mL.

`CN(C)C(=O)N[C@H]1CC[C@H](CCN2CCN(c3cccc(Cl)c3Cl)CC2)CC1` [cariprazine free base, cariprazine]: the solubility in the data set “physchem” was determined as 6 µg/mL (≈ 14 µM).

As for `Cc1cc2c(s1)Nc1ccccc1N=C2N1CCN(C)CC1.O.O=C(O)c1cc2ccccc2c(Cc2c(O)c(C(=O)O)cc3ccccc23)c1O` [olanzapine pamoate], the “solubilization enhancement in plasma compared to pH 7.6 buffer” value in data set [1] was 18 fold.
